US9511053B2, “Nitric oxide scavengers” (Baxter International Inc., priority 2004, dated 2016)
Each block holds one compound with its values, some of them ahead of it.

How the values were obtained:
[1] = Solubility in phosphate buffer; type: physicochemical
Experimental: Synthesis of 1,3-dihydroxy-2-(2-thienyl)-4,4,5,5,-tetramethylimidazolidine (compound 4 where R is compound 4c) was conducted as shown on FIG. 1. Anhydro adduct (compound 3 where R is compound 4c) was synthesized from treatment of 2,3-bis-(hydroxyamino)-2,3-dimetylbutansulfate (compound 1 where R is compound 4c) and 2-thiophenecarboxaldehyde (compound 2 where R is compound 4c) in water and methanol where compound 3 was a stable white solid insoluble in water. Compound 3 was oxidized by lead oxide in chloroform to form blue crystals (compound 4 where R is 4c). […] The nitronyl nitroxide monoradicals (compound 4 where R is compound 4a or 4b) have been tested for nitric oxide scavenge activity as described below in greater detail.

[2] = Stability of the nitronyl nitroxide monoradical on isolation; type: physicochemical; conditions: after oxidation with manganese dioxide in ether and column chromatography
Experimental: Synthesis of 1,3-Dihydroxy-2-(2,4-dihydroxyphenyl)-4,4,5,5,-tetramethylimidazolidine (compound 4 where R is compound 4a) was conducted as shown in FIG. 1. Anhydro adduct compound 3 where R is compound 4a was synthesized from treatment of 2,3-bis-(hydroxyamino)-2,3-dimetylbutansulfate (compound 1 where R is compound 4a) and 2,4-dihydroxybenzaldehyde (compound 2 where R is compound 4a) in a mixture of water and methanol. The nitronyl nitroxide monoradical (compound 4 where R is compound 4a) was obtained after oxidation of compound 3 (where R is compound 4a) with manganese dioxide in ether. Compound 4 was very unstable where only 2.5 mg of compound 4 was obtained after column chromatography.

[3] = NO scavenger assessment: direct measurement of nitric oxide with NO-selective microelectrode; type: biochemical; conditions: anaerobic, room temperature, phosphate buffer 50 mM pH 7.4
Experimental: The nitric oxide (NO) scavenging activity of various compounds was determined by the direct measurement of nitric oxide. Using a NO-selective microelectrode (World Precision Instruments, ISO-NO Mark II) the nitric oxide concentration was monitored upon the addition of the test compound. The reaction rate constant was calculated for each compound. Test compounds were added in molar excess, and therefore pseudo first-order reaction kinetics were observed. The rate constant (ln ks) for each compound was calculated. Reactions were performed under anaerobic conditions at room temperature, in phosphate buffer (50 mM, pH 7.4).

[4] = test system: anesthetized rats treated with LPS to induce hypotension; experiment: Hydroxocobalamin animal study: MAP and HR of anesthetized rats treated with LPS to induce hypotension; type: in vivo, Sprague-Dawley rats
Experimental: Applicants have conducted a study to assess the effect of hydroxocobalamin on the mean arterial pressure (MAP) and heart rate (HR) of anesthetized rats that had been treated with LPS to induce hypotension as described in greater detail below.
Three male Sprague-Dawley rats were acutely instrumented with femoral arterial and venous catheters. Rats were initially anesthetized using a 60 mg/kg i.p. dose of Nembutal (sodium pentobarbital.) Each rat was then instrumented with one arterial catheter for blood pressure measurement, and two venous catheters for test article administration, and infusion of Nembutal (0.42 mL/kg/hr) for maintenance of surgical anesthesia. After placement of the catheters, rats were moved to plexiglass boxes to begin hemodynamic measurements. Baseline data were collected for 30 minutes prior to experimental manipulation in order to verify that all rats were properly anesthetized, and that baseline MAP and HR were within acceptable baseline ranges. Following baseline data collection, each rat received a 5 mg/kg intravenous dose of LPS at a rate of 1 mL/min. After achieving a sustained hypotension at approximately 60 minutes after the LPS infusion, one rat received a 6 mL/kg intravenous dose of hydroxocobalamin (14.5 mM in PBS) over a period of one hour. The remaining two rats each received a 4.57 mL/kg intravenous dose of saline over a period of one hour. MAP and HR measurements continued for 2 hours after hydroxocobalamin or saline infusion. Following LPS administration, all three rats received a continuous intravenous administration of Lactated Ringer's solution in order to prevent dehydration (2.4 mL/kg/hr). Due to a limited amount of hydroxocobalamin, it was only possible to dose one animal with this compound.

SMILES: CC1(C)N([O])C(c2ccc(C(=O)O)cc2)=[N+]([O-])C1(C)C [Carboxy-PTIO]
Rate of NO Scavenging, ln ks ([3]; Molar ratio scavenger to NO 28:1): 3.8
Rate of NO Scavenging, ln ks ([3]; Molar ratio scavenger to NO 56:1): 3.9
Rate of NO Scavenging, ln ks ([3]; Molar ratio scavenger to NO 91:1): 3.5
Rate of NO Scavenging, ln ks ([3]; Molar ratio scavenger to NO 129:1): 3.4

SMILES: C/C1=C2/[N-][C@H]([C@H](CC(N)=O)[C@@]2(C)CCC(=O)NC[C@@H](C)OP(=O)([O-])OC2C(O)[C@@H](n3cnc4cc(C)c(C)cc43)O[C@@H]2CO)[C@]2(C)N=C(/C(C)=C3N=C(/C=C4N=C1[C@@H](CCC(N)=O)C\4(C)C)[C@@H](CCC(N)=O)[C@]\3(C)CC(N)=O)[C@@H](CCC(N)=O)[C@]2(C)CC(N)=O.CC(=O)[O-].[Co+3] (some centres unmarked) [Vitamin B12a (acetate)]
Rate of NO Scavenging, ln ks ([3]; Molar ratio scavenger to NO 33:1): 3.7
Rate of NO Scavenging, ln ks ([3]; Molar ratio scavenger to NO 47:1): 3.4
Rate of NO Scavenging, ln ks ([3]; Molar ratio scavenger to NO 142:1): 3.7
Rate of NO Scavenging, ln ks ([3]; Molar ratio scavenger to NO 277:1): 3.1

SMILES: C/C1=C2/[N-][C@H]([C@H](CC(N)=O)[C@@]2(C)CCC(=O)NC[C@@H](C)OP(=O)([O-])O[C@H]2[C@@H](O)[C@@H](n3cnc4cc(C)c(C)cc43)O[C@@H]2CO)[C@]2(C)N=C(/C(C)=C3N=C(/C=C4N=C1[C@@H](CCC(N)=O)C\4(C)C)[C@@H](CCC(N)=O)[C@]\3(C)CC(N)=O)[C@@H](CCC(N)=O)[C@]2(C)CC(N)=O.[Co+3].[OH-] [hydroxocobalamin]
MAP below baseline levels ([4]; 60-180 minutes post-LPS (5 mg/kg i.v.), 6 mL/kg i.v. of 14.5 mM in PBS over one hour from 60 min post-LPS, one rat): 10-20 mmHg
survival ([4]; LPS 5 mg/kg i.v., 6 mL/kg i.v. of 14.5 mM in PBS over one hour, one rat, both saline rats died): survived the entire experiment
effect on HR and MAP (in words) ([4]; anesthetized rat with LPS-induced hypotension, summary): increased HR and allowed MAP to be maintained
HR above baseline levels ([4]; from 60 minutes post-LPS infusion, 6 mL/kg i.v. of 14.5 mM in PBS over one hour, one rat): approximately 140 bpm

Second part, led by results:

solubility in phosphate buffer [1]: soluble in phosphate buffer
stability [2]: very unstable
SMILES: CC1(C)N(O)C(c2ccc(O)cc2O)N(O)C1(C)C [4a, 1,3-Dihydroxy-2-(2,4-dihydroxyphenyl)-4,4,5,5,-tetramethylimidazolidine]

solubility in phosphate buffer [1]: soluble in phosphate buffer
SMILES: CC1(C)N(O)C(c2ccncc2)N(O)C1(C)C [NN-2, 1,3-Dihydroxy-2-(4-pyridyl)-4,4,5,5,-tetramethylimidazolidine]
Rate of NO Scavenging, ln ks ([3]; Molar ratio scavenger to NO 42:1): 3.7
Rate of NO Scavenging, ln ks ([3]; Molar ratio scavenger to NO 111:1): 3.4

solubility in phosphate buffer [1]: soluble in phosphate buffer
SMILES: CC1(C)N(O)C(c2cccs2)N(O)C1(C)C [NN-3, 1,3-Dihydroxy-2-(2-thienyl)-4,4,5,5,-tetramethylimidazolidine]
Rate of NO Scavenging, ln ks ([3]; Molar ratio scavenger to NO 71:1): 2.8
Rate of NO Scavenging, ln ks ([3]; Molar ratio scavenger to NO 126:1): 2.8
